From paper PMC12117711, “The contribution of cyclic imide stereoisomers on cereblon-dependent activity†” (Chemical Science, 2025)
One block for each molecule: values may come before it. Non-standard residues stand in square brackets, D forms with d. No end group written: not given here. *: point of attachment. epicN = C-terminal cyclic asparagine (aspartimide), (R)-epimer, epimer of cN, O=C1C[C@@H](N*)C(=O)N1; cQ = C-terminal cyclic glutamine (glutarimide), (S)-epimer, O=C1CC[C@H](N*)C(=O)N1; Fmoc = O=C(OCC1c2ccccc2-c2ccccc21)*

How the values were obtained:
[1] = in vitro, 0.1 M phosphate buffer (pH 7.4), 37 °C; cited from earlier work
CRBN = test system: CRBN; design: method as in PMID 29358579, PMID 32929090, PMID 25043012, PMID 25108355; settings: cited from earlier work
MOLM13 cells = experiment: Global quantitative proteomics of protein levels; format: cell-based; settings: 4 h; for FC [fold change abundances (S/DMSO)] / logFC (S vs DMSO): MOLM13, 100 nM
Description: Global Quantitative Proteomics Sample Preparation and Mass Spectrometry Acquisition Global Quantitative Proteomics was performed according to the previously reported method.7 Briefly, 1.0×10^6 MOLM13 cells were seeded in 12-well plates and small molecules of interest were added, and cells were incubated at 37 °C, 5% CO2 for 4 hours. Cells were collected […]
15 sec in total, 11% amplitude) in lysis buffer (5% SDS in 50 mM triethylammonium bicarbonate (TEAB), pH 7.55), and cleared by centrifugation (21,000 × g, 4 °C, 10 min). After protein quantification by BCA protein assay, the lysates were diluted to 1.5 mg/mL with the lysis buffer. The diluted lysates (60 μL) were reduced by addition of dithiothreitol (20 mM) at 24 °C for 30 min then alkylated by addition of iodoacetamide (40 mM) and incubation in the dark at 24 °C for 30 min.

[2] = biological target: T1, BRD4(BD1)-GFP in HEK293T cells (Homo sapiens, UniProt O60885+Q96SW2); experiment: Degradation assay by flow cytometry, BRD4(BD1)-GFP; format: cell-based; settings: 76 pM–20 μM, 4 h
T1 construct: HEK293T cells stably expressing BRD4(BD1) fused to GFP
Description: (v21.1.1) and Adobe Illustrator (v24.1).
MM.1S, MOLM13, Jurkat, and BxPC3 […]
μg/mL), and 10% (v/v) FBS.
Western Blotting Procedures […]
lysates and the concentration was adjusted using lysis buffer. 5× SDS-PAGE loading buffer […]
Protein samples (8–15 μL per lane) were […]
precast gels for medium molecular weight proteins. Gels were transferred to membranes using […]
for high molecular weight proteins. Membranes were stained with Ponceau S solution to visualize transfer and protein loading.
Degradation assay by flow cytometry […]
resuspension in DMEM +/– without phenol red. For IKZF1 degradation assay, propidium […]
equipped with a high throughput sampler. […]
using the BD FACSDiva software v9.1. For each experimental condition, the arithmetic mean […]
comparing compound treatment to DMSO control.
Structural proteomics mass spectrometry sample preparation […]
sample throughout the assay duration. The same analysis was also applied to the (S)- […]
dependent activity, we adjusted the dose-response curves accordingly. Because dose- […]
within the error margins of the original curve. […]
squares F-test. This analysis determined whether there was a statistically significant […]
derived (S)-enantiomer. If there is a statistically significant difference, the null […]
Cells were treated with 1 μM MLN4924
The cells were collected and lysed in […]
centrifugation (21,000 × g, 4 °C, 10 min). […]

His6-CRBN/DDB1 = His6-CRBN/DDB1 (Homo sapiens, UniProt Q96SW2); experiment: TR-FRET ligand displacement assay (Thal-FITC tracer) with His6-CRBN/DDB1
[3] = biological target: T2, His6-CRBN/DDB1 and GST-BRD4(BD2) (Homo sapiens, UniProt O60885+Q96SW2); experiment: AlphaScreen ternary complex formation, His6-CRBN/DDB1 and GST-BRD4(BD2); format: binding
T2 construct: His6-CRBN/DDB1 complex and GST-BRD4 BD2 domain; purchased Epicypher (GST-BRD4(BD2)); Bristol Myers Squibb gift (His6-CRBN/DDB1) 15-0013
Description: AlphaScreen was performed according to the previously reported method.7 Briefly, for AlphaScreen of His6-CRBN/DDB1, GST-IKZF1 and (S)-, (R)- or rac-lenalidomide-d3, a solution of 100 nM His6-CRBN/DDB1 and 200 nM GST-IKZF1 in 1x AlphaScreen buffer (5 µL) and a solution of the indicated compound in 1x AlphaScreen buffer (5 µL) were added to a each well of a 384-well Optiplate and incubated at 24 °C for 1 h. To each well, a solution of 5 µL of 60 µg/mL AlphaScreen Glutathione Donor beads, 60 µg/mL AlphaLISA Nickel Chelate Donor beads in 1× AlphaScreen buffer was added to each well and incubated at 24 °C for 1 h in the dark and the plate was analyzed. For AlphaScreen of His6-CRBN/DDB1, GST-BRD4(BD2) and bivalent degraders, a solution of 750 nM His-CRBN/DDB1 and 375 nM GST-BRD4(BD2) in 1x AlphaScreen buffer (5 µL) and a solution of the indicated compound in 1x AlphaScreen buffer (5 µL) were added to a each well of a 384-well Optiplate and incubated at 24 °C for 1 h. To each well, a solution of 5 µL of 60 µg/mL AlphaScreen Glutathione Donor beads, 60 µg/mL AlphaLISA Nickel Chelate Donor beads in 1× AlphaScreen buffer was added to each well and incubated at 24 °C for 1 h in the dark and the plate was analyzed. […]
heated at 95 °C for 5 min. 10 µL of the immunoprecipitated sample was load on a 12% Tris-glycine gel and probe-labeling was visualized by fluorescence signal. Separately, 10 µL of the immunoprecipitated sample and the “input” sample were load on a 12% Tris-glycine gel and analyzed by Western blotting. […]
Parental cell lines were stably infected with a unique 24-nucleotide DNA barcode via lentiviral transduction and blasticidin selection. […] Passing barcoded lines were then pooled (20-25 cell lines per pool) based on doubling time and frozen in assay-ready vials.
Test compounds were added to 384-well plates and run at 8 pt. dose with 3-fold dilutions, the highest concentration of 25 µM in triplicate. These assay ready plates were then seeded with […]

His6-CRBN/DDB1 complex [4] = biological target: T3, His6-CRBN/DDB1 complex (UniProt Q96SW2 1-442; Q16531 1-1140); experiment: AlphaScreen or HTRF; competitive TR-FRET ligand displacement assay against recombinant His6-CRBN/DDB1; KD from dose-titration of the ligand; settings: both partners purified
T3 construct: cereblon (CRBN), E3 ligase substrate adapter; DDB1, in complex with CRBN; Used as a preformed complex in TR-FRET and AlphaScreen; also called cereblon; source: recombinant

His6-CRBN/DDB1 complex [5] = biological target: His6-CRBN/DDB1 complex (UniProt Q96SW2); experiment: as above
His6-CRBN/DDB1 complex [6] = biological target: T4, His6-CRBN/DDB1 complex (UniProt Q96SW2 1-442; Q16531 1-1140); experiment: AlphaScreen or HTRF; competitive TR-FRET ligand displacement; peptide titrated against recombinant His6-CRBN/DDB1 (2.5 nM) with the tracer Thalidomide-FITC (50 nM); KD from IC50 by the correction factor 1.426 (tracer KD 2-site 117.3 nM); settings: both partners purified
T4 construct: cereblon (CRBN), E3 ligase substrate adapter; DDB1, in complex with His6-CRBN; Column 'Protein' of S0003 says only 'CRBN'; the text and legends name His6-CRBN/DDB1 for this TR-FRET assay; also called cereblon; source: recombinant

- degradation of BRD4(BD1)-GFP [2]: depleted BRD4 in a dose-dependent manner
- Kd (His6-CRBN/DDB1; KD, competitive TR-FRET, His6-CRBN/DDB1): < 1 nM
- Kd (His6-CRBN/DDB1; predicted KD of the (S)-stereoisomer, ligand displacement assay adjusted for (S)-stereoisomer, (S)-stereoisomer in the (S)-sample, corrected for racemization): 2.9 ± 0.2 nM
Molecule: [2H]C1([2H])C[C@]([2H])(N2Cc3cc(NC(=O)CCCCCCCCNC(=O)C[C@@H]4N=C(c5ccc(Cl)cc5)c5c(sc(C)c5C)-n5c(C)nnc54)ccc3C2=O)C(=O)NC1=O [JQ1-(S)-Len-d3]
- BRD4 protein levels by global quantitative proteomics (MOLM13 cells; MOLM13 cells, 100 nM): most significantly downregulated protein
- FC [fold change abundances (S/DMSO)] (MOLM13 cells; protein BRD4): -1.354
- logFC (S vs DMSO) (MOLM13 cells; protein BRD4): -0.6026
- FC [fold change abundances (S/DMSO)] (MOLM13 cells; protein BRI3BP): 2.54
- logFC (S vs DMSO) (MOLM13 cells; protein BRI3BP): 1.398
- FC [fold change abundances (S/DMSO)] (MOLM13 cells; protein C8orf33): 1.053
- logFC (S vs DMSO) (MOLM13 cells; protein C8orf33): 0.3248
- FC [fold change abundances (S/DMSO)] (MOLM13 cells; protein KPNA3): 1.127
- logFC (S vs DMSO) (MOLM13 cells; protein KPNA3): 0.397
- FC [fold change abundances (S/DMSO)] (MOLM13 cells; protein PSME2): 1.009
- logFC (S vs DMSO) (MOLM13 cells; protein PSME2): 0.2805
- ternary complex formation between His6-CRBN/DDB1 and GST-BRD4(BD2) [3]: promoted a significant ternary complex formation

- Kd (His6-CRBN/DDB1 complex [5]): 2870 nM
- IC50 (His6-CRBN/DDB1 complex [6]): 4090 nM
Molecule: Fmoc-GGGF[epicN] (pentapeptide; source: synthetic peptide) [Fmoc-GGGFepicN]

Second part, the molecule before the results:

Molecule: O=C1CC[C@@H](N2C(=O)c3ccccc3C2=O)C(=O)N1 [(R)-thalidomide]
- t50%ee (racemization half-life) [1]: 2.9 h

Molecule: O=C1CC[C@H](N2C(=O)c3ccccc3C2=O)C(=O)N1 [(S)-thalidomide]
- fold greater binding affinity to CRBN than (R)-thalidomide (CRBN): approximately 10 fold

B1: Fmoc-GGGFcQ (peptide)
peptide: Fmoc-GGGF[cQ]
notes: pentapeptide bearing the (S)-epimer of cyclic glutamine at the C-terminus; also called FcQ pentapeptide; source: synthetic peptide
- Kd (His6-CRBN/DDB1 complex [4]): 89 nM
